Measurements taken from ChEMBL document CHEMBL2007661, “Compounds: GSK PKIS; Assays: UNC Frye lab” (2012).
“And” between values parts separate entries of the source, which are not always exact repeats. Identical values can stand only once. One block for each molecule: values may come before it.

Assays:
[1] = biological target: T1, Inhibitor of nuclear factor kappa-B kinase subunit alpha (Homo sapiens) (UniProt O15111); conditions: at 1 µM
T1 sequence (whole entry): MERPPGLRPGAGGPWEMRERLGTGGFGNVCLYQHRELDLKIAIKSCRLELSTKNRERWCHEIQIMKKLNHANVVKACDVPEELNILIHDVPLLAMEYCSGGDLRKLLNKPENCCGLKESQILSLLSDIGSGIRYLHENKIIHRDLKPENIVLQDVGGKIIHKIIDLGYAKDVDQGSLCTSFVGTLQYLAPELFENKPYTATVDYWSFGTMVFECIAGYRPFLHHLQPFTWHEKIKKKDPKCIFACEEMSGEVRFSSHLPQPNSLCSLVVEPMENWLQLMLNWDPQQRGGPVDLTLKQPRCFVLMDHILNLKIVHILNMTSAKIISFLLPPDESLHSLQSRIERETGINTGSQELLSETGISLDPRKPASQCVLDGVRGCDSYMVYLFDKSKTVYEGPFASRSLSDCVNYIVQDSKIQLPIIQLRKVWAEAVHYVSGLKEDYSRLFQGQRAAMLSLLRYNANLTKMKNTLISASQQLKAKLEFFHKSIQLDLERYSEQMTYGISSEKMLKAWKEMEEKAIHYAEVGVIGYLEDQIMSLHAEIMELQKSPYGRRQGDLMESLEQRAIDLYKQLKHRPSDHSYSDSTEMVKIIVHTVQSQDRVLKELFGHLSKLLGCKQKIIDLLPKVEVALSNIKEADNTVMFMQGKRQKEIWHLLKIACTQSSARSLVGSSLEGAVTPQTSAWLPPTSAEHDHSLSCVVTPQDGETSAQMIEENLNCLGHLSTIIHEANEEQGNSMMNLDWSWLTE

[2] = biological target: T2, Inhibitor of nuclear factor kappa-B kinase subunit epsilon (Homo sapiens) (UniProt Q14164); conditions: at 1 µM
T2 sequence (whole entry): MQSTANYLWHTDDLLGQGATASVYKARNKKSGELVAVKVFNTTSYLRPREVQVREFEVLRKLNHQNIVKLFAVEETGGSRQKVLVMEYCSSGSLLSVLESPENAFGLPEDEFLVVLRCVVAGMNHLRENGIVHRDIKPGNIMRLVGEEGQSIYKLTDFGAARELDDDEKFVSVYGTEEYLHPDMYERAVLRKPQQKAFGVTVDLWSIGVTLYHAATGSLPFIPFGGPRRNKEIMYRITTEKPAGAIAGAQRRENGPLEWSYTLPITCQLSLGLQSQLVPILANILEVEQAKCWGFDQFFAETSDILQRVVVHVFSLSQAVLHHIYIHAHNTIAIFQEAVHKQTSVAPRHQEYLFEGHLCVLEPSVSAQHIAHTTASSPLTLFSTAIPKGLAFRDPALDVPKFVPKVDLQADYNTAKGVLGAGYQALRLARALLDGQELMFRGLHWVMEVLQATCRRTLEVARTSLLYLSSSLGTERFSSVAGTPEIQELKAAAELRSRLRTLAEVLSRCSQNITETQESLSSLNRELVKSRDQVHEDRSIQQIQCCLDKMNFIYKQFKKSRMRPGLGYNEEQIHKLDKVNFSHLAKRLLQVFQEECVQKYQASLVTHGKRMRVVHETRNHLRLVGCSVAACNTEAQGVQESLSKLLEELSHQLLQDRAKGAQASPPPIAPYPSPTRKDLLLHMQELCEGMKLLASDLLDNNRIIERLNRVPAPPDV

[3] = biological target: T3, Tyrosine-protein kinase Mer (Homo sapiens) (UniProt Q12866); conditions: at 10 µM
T3 sequence (whole entry): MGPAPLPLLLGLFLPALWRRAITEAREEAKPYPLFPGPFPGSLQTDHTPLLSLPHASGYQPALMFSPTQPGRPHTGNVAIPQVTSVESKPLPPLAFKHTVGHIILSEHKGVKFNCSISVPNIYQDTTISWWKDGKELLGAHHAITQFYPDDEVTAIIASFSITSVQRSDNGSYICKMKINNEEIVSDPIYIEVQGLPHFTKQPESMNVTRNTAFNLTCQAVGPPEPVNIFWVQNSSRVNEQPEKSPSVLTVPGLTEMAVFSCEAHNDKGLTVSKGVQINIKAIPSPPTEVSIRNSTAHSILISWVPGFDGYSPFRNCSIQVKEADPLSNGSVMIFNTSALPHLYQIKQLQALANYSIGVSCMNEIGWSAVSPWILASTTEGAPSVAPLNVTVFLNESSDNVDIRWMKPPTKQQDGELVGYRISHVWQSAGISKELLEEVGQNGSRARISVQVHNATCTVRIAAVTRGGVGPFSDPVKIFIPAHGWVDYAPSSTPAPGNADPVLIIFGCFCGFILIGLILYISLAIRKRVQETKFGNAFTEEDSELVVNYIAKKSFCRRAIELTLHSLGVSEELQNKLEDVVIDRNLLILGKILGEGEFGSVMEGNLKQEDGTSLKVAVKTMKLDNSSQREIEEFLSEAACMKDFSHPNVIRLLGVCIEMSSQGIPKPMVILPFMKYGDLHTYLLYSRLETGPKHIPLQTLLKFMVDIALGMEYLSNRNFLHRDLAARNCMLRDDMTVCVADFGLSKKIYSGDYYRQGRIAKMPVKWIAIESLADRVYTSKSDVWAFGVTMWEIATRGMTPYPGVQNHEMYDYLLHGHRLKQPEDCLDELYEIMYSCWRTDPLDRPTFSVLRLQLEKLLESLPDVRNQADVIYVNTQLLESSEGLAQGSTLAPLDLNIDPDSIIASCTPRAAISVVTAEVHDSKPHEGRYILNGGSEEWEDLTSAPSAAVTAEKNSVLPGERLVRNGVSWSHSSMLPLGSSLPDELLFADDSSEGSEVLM

SMILES: Cc1ccc(NC(=O)c2ccnc(N3CCCC3)c2)cc1-c1ccc(C(=O)NCC2CC2)cc1
- inhibition [1]: -8%
- inhibition [2]: 5% and 6%
- inhibition [3]: -1%

SMILES: ON=C1CCc2cc(-c3nc(C4CCNCC4)[nH]c3-c3ccncc3)ccc21
- inhibition [1]: -2% and -3%
- inhibition [2]: 1% and 4%
- inhibition [3]: 38%

SMILES: NS(=O)(=O)c1ccc(N/N=C2\C(=O)Nc3ccc(-c4cnco4)cc32)cc1
- inhibition [1]: -3%
- inhibition [2]: 39% and 41%
- inhibition [3]: 16%

SMILES: CNC(=O)c1cncc(/C=C/c2c(C)cccc2C)c1
- inhibition [1]: -6% and -4%
- inhibition [2]: 0% and -1%
- inhibition [3]: -3%

SMILES: O=C(Nc1n[nH]c2nc(-c3ccc(O)cc3)c(Br)cc12)C1CC1
- inhibition [1]: 2% and 14%
- inhibition [2]: 4% and 6%
- inhibition [3]: 39%

SMILES: CCOc1nccc2c1nc(-c1nonc1N)n2CC
- inhibition [1]: 15% and 18%
- inhibition [2]: 2% and 0%
- inhibition [3]: -3%

SMILES: N#Cc1c(NC(=O)c2ccccc2F)sc2c1CCCC2
- inhibition [1]: -3%
- inhibition [2]: 1% and 4%
- inhibition [3]: -6%

SMILES: CN(C)c1ccc2c(c1)/C(=C/Nc1ccc(S(N)(=O)=O)cc1)C(=O)N2
- inhibition [1]: 0% and -1%
- inhibition [2]: 37% and 36%
- inhibition [3]: 2%

SMILES: CCc1nn2ncccc2c1-c1ccnc(NC2CC2)n1
- inhibition [1]: 0%
- inhibition [2]: -2% and -1%
- inhibition [3]: -4%

SMILES: Cc1cc(O)cc(C)c1/C=C/c1cncc(-c2nn[nH]n2)c1
- inhibition [1]: 4% and 5%
- inhibition [2]: 2%
- inhibition [3]: -2%

SMILES: Cc1cc(O)cc(C)c1/C=C/c1cncc(C(N)=O)c1
- inhibition [1]: 4% and 0%
- inhibition [2]: -2%
- inhibition [3]: -6%

SMILES: O=C1Nc2ccccc2/C1=C1\CCc2cc(O)ccc21
- inhibition [1]: 1% and 0%
- inhibition [2]: 13%
- inhibition [3]: 7%

Other lines, results leading:

- inhibition [1]: 2%
- inhibition [2]: -3% and -1%
- inhibition [3]: -6%
SMILES: CS(=O)(=O)CCNCc1nc(-c2ccc3ncnc(Nc4ccc(F)c(Cl)c4)c3c2)cs1

- inhibition [1]: 7% and 19%
- inhibition [2]: 29% and 27%
- inhibition [3]: 49%
SMILES: COc1cccc(-n2ncc3c(N/N=C/c4ccc(C(=O)NCCN(C)C)cc4)ncnc32)c1

- inhibition [1]: 2% and 1%
- inhibition [2]: 44% and 43%
- inhibition [3]: 2%
SMILES: COc1ccc2c(-c3ccnc(Nc4cccc(OC(F)(F)F)c4)n3)cnn2n1

- inhibition [1]: 1% and 4%
- inhibition [2]: 6% and 4%
- inhibition [3]: 84%
SMILES: COc1cccc(-n2ncc3c(N/N=C/c4ccncc4)ncnc32)c1

- inhibition [1]: 2% and -8%
- inhibition [2]: -2% and 0%
- inhibition [3]: 58%
SMILES: Nc1ccc(C#Cc2cncnc2Nc2ccc(OCc3cccc(F)c3)c(Cl)c2)cc1

- inhibition [1]: 1% and 2%
- inhibition [2]: -2%
- inhibition [3]: 10%
SMILES: CN(C)c1cc2c(Nc3ccc4c(cnn4Cc4ccccc4)c3)ncnc2cn1

- inhibition [1]: 5% and 4%
- inhibition [2]: -1% and 0%
- inhibition [3]: -1%
SMILES: c1ccc(-c2n[nH]cc2-c2ccnc(-c3ccc(OCCN4CCOCC4)cc3)c2)nc1

- inhibition [1]: 6%
- inhibition [2]: -1%
- inhibition [3]: -3%
SMILES: Fc1ccc(-c2cc(-c3c[nH]nc3-c3ccccn3)ccn2)cc1

- inhibition [1]: -4% and -3%
- inhibition [2]: 11% and 9%
- inhibition [3]: 5%
SMILES: CCCN1CCCC(c2ccc(Nc3nc(Nc4cc(F)ccc4C(N)=O)c4cc[nH]c4n3)c(OC)c2)C1 (stereo unspecified)

- inhibition [1]: 1%
- inhibition [2]: 1% and 0%
- inhibition [3]: -4%
SMILES: NC(=O)c1ccc2c(-c3ccnc(NCCCO)n3)c(-c3ccc(F)cc3)nn2c1

- inhibition [1]: 3% and 4%
- inhibition [2]: 16% and 15%
- inhibition [3]: 99%
SMILES: O=C1NC(=O)C(c2cccc(Cl)c2)=C1Nc1ccc(O)c(Cl)c1

- inhibition [1]: 2%
- inhibition [2]: -3% and -1%
- inhibition [3]: 74%
SMILES: NS(=O)(=O)c1cccc(-c2cc3ccncc3cc2OCc2ccccc2)c1

- inhibition [1]: -3% and -4%
- inhibition [2]: 1% and 3%
- inhibition [3]: -1%
SMILES: C[C@@H](Oc1cc(-n2cnc3ccc(OC[C@@H](O)CO)cc32)sc1C(N)=O)c1ccccc1Cl

- inhibition [1]: 2% and 3%
- inhibition [2]: 1%
- inhibition [3]: -4%
SMILES: COc1ccc2ncnc(Nc3ccc(OCc4ccccc4)cc3)c2c1

- inhibition [1]: 4% and 5%
- inhibition [2]: 1% and 3%
- inhibition [3]: 2%
SMILES: CCNC(=O)O[C@H]1CN[C@H](C#Cc2cc3ncnc(Nc4ccc(OCc5cccc(F)c5)c(Cl)c4)c3s2)C1
